Reference: patent US20260285816A1, “Piperazinyl-Modified Quinazolinyl-Aryl Urea Derivative, And Preparation Method And Use Thereof” (Guangxi Normal University, priority 2025, published 2026)
Where a name gives a salt, the structure may show the parent alone. Read-outs that look alike come from different tables or passages of the source.

How the values were obtained:
Format in all cases: cell-based, human
[1] = system: Hep G2 cells; experiment: CCK-8 anti-proliferative assay, Hep G2
Description: (§1) The obtained quinazolinyl-aryl urea derivatives were screened for compounds with optimal activity using the following method. All cell lines employed in this experiment were of human origin, including: bladder cancer cells: J82, UM-UC-3, T24, 5637, pancreatic cancer cells: BxPC-3, PANC-1, osteosarcoma cells: 143B, MG-63, cervical cancer cells: HeLa, breast cancer cells: MCF-7, NSCLC cells: A549, hepatoblastoma cells: Hep G2, and ovarian cancer cells: SK-OV-3, as well as normal cell lines: immortalized ureteral epithelial cells (SV-HUC-1), embryonic lung fibroblasts (WI-38).
(§2) Experimental Procedure for Anti-Proliferative Activity Evaluation: The CCK-8 assay was employed. Cells in logarithmic growth phase were harvested, adjusted to appropriate density, and uniformly seeded into 96-well plates using a multichannel pipette (180 μL cell suspension containing complete medium per well, 5,000 cells/well). Blank control wells (containing basal medium, CCK-8 solution, and DMSO only) were set. Cells were incubated at 37° C. under 5% CO2. After 70% confluency was reached, test compounds (target compounds/positive controls) were added at final concentrations of 1, 2, 4, 6, 8, 12, 16, 24, and 30 μM (3 repeated wells per concentration). Compounds were pre-dissolved in DMSO, sterilized, and diluted with medium before adding 20 μL/well. After co-incubation for designated durations, 10 μL CCK-8 solution was added per well followed by 1-4 h incubation (different cells have different incubation times). The reaction was terminated, and OD (optical density) values at 450 nm were measured using a microplate reader. Inhibition rates were calculated as: (ODcontrol−ODtreatment)/ODcontrol×100%. Median inhibitory concentrations (IC50 values) were derived using Origin v8.0 software.

[2] = system: 5637 cells; experiment: CCK-8 anti-proliferative assay, 5637; conditions: Table 16, comparative compounds 8-1 to 8-23, co-incubated 48 h, read-out: Anti-proliferative activity (IC50 ± standard deviation) 5637
Description: (§3) The obtained quinazolinyl-aryl urea derivatives were screened for compounds with optimal activity using the following method.
as §2, with “The reaction was terminated, and OD (optical density) values at 450 nm were measured using a microplate reader.” left out

[3] = system: MCF-7 cells; experiment: CCK-8 anti-proliferative assay, MCF-7; conditions: Table 16, comparative compounds 8-1 to 8-23, co-incubated 48 h, read-out: Anti-proliferative activity (IC50 ± standard deviation) MCF-7
Description: as §3
as §2, with “The reaction was terminated, and OD (optical density) values at 450 nm were measured using a microplate reader.” left out

[4] = system: T24 cells; experiment: CCK-8 anti-proliferative assay, T24; conditions: Table 16, comparative compounds 8-1 to 8-23, co-incubated 48 h, read-out: Anti-proliferative activity (IC50 ± standard deviation) T24
Description: as §1, §2

[5] = system: A549 cells; experiment: CCK-8 anti-proliferative assay, A549; conditions: Table 16, comparative compounds 8-1 to 8-23, co-incubated 48 h, read-out: Anti-proliferative activity (IC50 ± standard deviation) A549
Description: as §3
as §2, with “The reaction was terminated, and OD (optical density) values at 450 nm were measured using a microplate reader.” left out

[6] = system: BxPC-3 cells; experiment: CCK-8 anti-proliferative assay, BxPC-3; conditions: Homo sapiens, BXPC-3; Table 7; co-incubated 48 h; read-out: Anti-proliferative activity (IC50 ± standard deviation) BxPC-3
Description: as §1, §2

[7] = system: PANC-1 cells; experiment: CCK-8 anti-proliferative assay, PANC-1; conditions: Homo sapiens, PANC-1; Table 7; co-incubated 48 h; read-out: Anti-proliferative activity (IC50 ± standard deviation) PANC-1
Description: as §1, §2

[8] = Homo sapiens, HepG2, Table 16, comparative compounds 8-1 to 8-23, co-incubated 48 h, read-out: Anti-proliferative activity (IC50 ± standard deviation) Hep G2

| IC50 ([3]; Homo sapiens, MCF7) | IC50 ([4]; Homo sapiens, T-24) | IC50 ([5]; Homo sapiens, A549) | IC50 [3] | IC50 [4] | IC50 [5] | IC50 [6] | IC50 [7] | SMILES | IC50 [1, 8] | IC50 ([2]; Homo sapiens) | IC50 ([1]; Homo sapiens, HepG2, read-out: IC50 on Hep G2) | IC50 ([1]; Table 16, comparative compounds 8-1 to 8-23, co-incubated 48 h, read-out: Anti-proliferative activity (IC50 ± standard deviation) Hep G2) | IC50 [2] |
| --- | --- | --- | --- | --- | --- | --- | --- | --- | --- | --- | --- | --- | --- |
| 18.3 ± 0.53 µM | 18.8 ± 0.49 µM | > 30 µM |  |  |  |  |  | COc1cc2ncnc(NCc3cccc(NC(=O)Nc4ccccc4)c3)c2cc1OCCCC(=O)N1CCC(N2CCOCC2)CC1 [Compound 8-1, reference compound] | 28.2 ± 0.49 µM | 26.2 ± 0.98 µM |  |  |  |
| 21.3 ± 0.42 µM | 23.2 ± 0.54 µM | 21 ± 0.87 µM |  |  |  |  |  | COc1cc2ncnc(NCc3cccc(NC(=O)Nc4cc(C)cc(C)c4)c3)c2cc1OCCCC(=O)N1CCC(N2CCOCC2)CC1 [Compound 8-5, reference compound] | > 30 µM | 21.7 ± 0.51 µM |  |  |  |
| > 30 µM | 18.6 ± 0.53 µM | > 30 µM |  |  |  |  |  | CCc1cccc(CC)c1NC(=O)Nc1cccc(CNc2ncnc3cc(OC)c(OCCCC(=O)N4CCC(N5CCOCC5)CC4)cc23)c1 [Compound 8-7, reference compound] | 24.2 ± 0.53 µM | 13.9 ± 0.68 µM |  |  |  |
| 6.55 ± 0.13 µM | 4.54 ± 0.04 µM | 12.5 ± 0.37 µM |  |  |  |  |  | COc1cc2ncnc(NCc3cccc(NC(=O)Nc4ccc(C(C)(C)C)cc4)c3)c2cc1OCCCC(=O)N1CCC(N2CCOCC2)CC1 [Compound 8-9, reference compound] | 12.2 ± 0.17 µM | 6.25 ± 0.06 µM | 12.2 ± 0.17 µM |  |  |
|  |  |  | 18.3 ± 0.43 µM | 23.3 ± 1.82 µM | > 30 µM |  |  | COc1cc2ncnc(NCc3cccc(NC(=O)Nc4ccc(F)cc4)c3)c2cc1OCCCCCCN1CCN(CCN2CCOCC2)CC1 [Compound 8-11, reference compound] |  |  |  | > 30 µM | 17.9 ± 0.33 µM |

Continued, molecule first:

| SMILES | IC50 ([3]; Homo sapiens, MCF7) | IC50 ([4]; Homo sapiens, T-24) | IC50 ([5]; Homo sapiens, A549) | IC50 [3] | IC50 [4] | IC50 [5] | IC50 [6] | IC50 [7] | IC50 [1, 8] | IC50 ([2]; Homo sapiens) | IC50 ([1]; Homo sapiens, HepG2, read-out: IC50 on Hep G2) | IC50 ([1]; Table 16, comparative compounds 8-1 to 8-23, co-incubated 48 h, read-out: Anti-proliferative activity (IC50 ± standard deviation) Hep G2) | IC50 [2] |
| --- | --- | --- | --- | --- | --- | --- | --- | --- | --- | --- | --- | --- | --- |
| COc1cc2ncnc(NCc3cccc(NC(=O)Nc4ccccc4C)c3)c2cc1OCCCC(=O)N1CCC(N2CCOCC2)CC1 [Compound 8-2, reference compound] | 16.5 ± 0.64 µM | > 30 µM | > 30 µM |  |  |  |  |  | > 30 µM | 25.9 ± 1.32 µM |  |  |  |
| COc1cc2ncnc(NCc3cccc(NC(=O)Nc4ccc(C)cc4)c3)c2cc1OCCCC(=O)N1CCC(N2CCOCC2)CC1 [Compound 8-3, reference compound] | 23.2 ± 0.35 µM | 20.6 ± 0.68 µM | 24.1 ± 0.95 µM |  |  |  |  |  | > 30 µM | > 30 µM |  |  |  |
| COc1cc2ncnc(NCc3cccc(NC(=O)Nc4ccc(C)cc4C)c3)c2cc1OCCCC(=O)N1CCC(N2CCOCC2)CC1 [Compound 8-4, reference compound] | 18.5 ± 0.63 µM | 27.1 ± 0.33 µM | 22.2 ± 1.15 µM |  |  |  |  |  | > 30 µM | 14 ± 0.66 µM |  |  |  |
| CCc1ccccc1NC(=O)Nc1cccc(CNc2ncnc3cc(OC)c(OCCCC(=O)N4CCC(N5CCOCC5)CC4)cc23)c1 [Compound 8-6, reference compound] | > 30 µM | 19.4 ± 0.44 µM | > 30 µM |  |  |  |  |  | > 30 µM | 27.5 ± 0.94 µM |  |  |  |
| COc1cc2ncnc(NCc3cccc(NC(=O)Nc4ccc(C(C)C)cc4)c3)c2cc1OCCCC(=O)N1CCC(N2CCOCC2)CC1 [Compound 8-8, reference compound] | 10 ± 0.19 µM | 7.73 ± 0.23 µM | 18.3 ± 0.29 µM |  |  |  |  |  | 17.7 ± 0.46 µM | 7.6 ± 0.18 µM |  |  |  |
| COc1ccccc1NC(=O)Nc1cccc(CNc2ncnc3cc(OC)c(OCCCC(=O)N4CCC(N5CCOCC5)CC4)cc23)c1 [Compound 8-10, reference compound] | 19.3 ± 0.56 µM | 18.7 ± 0.38 µM | > 30 µM |  |  |  |  |  | 28.8 ± 0.58 µM | 16.9 ± 0.64 µM |  |  |  |
| COc1cc2ncnc(NCc3cccc(NC(=O)Nc4ccc(F)cc4)c3)c2cc1OCCCC(=O)N1CCC(N2CCOCC2)CC1 [Compound 8-13, reference compound] | 21.5 ± 0.47 µM | 19.5 ± 0.27 µM | > 30 µM |  |  |  |  |  | > 30 µM | 13.9 ± 0.43 µM |  |  |  |
| COc1cc2ncnc(NCc3cccc(NC(=O)Nc4ccccc4Cl)c3)c2cc1OCCCC(=O)N1CCC(N2CCOCC2)CC1 [Compound 8-14, reference compound] | 18.6 ± 0.35 µM | 23.1 ± 0.73 µM | 20.2 ± 0.92 µM |  |  |  |  |  | > 30 µM | 28.9 ± 0.53 µM |  |  |  |
| C#Cc1cccc(Nc2ncnc3cc(OCCOC)c(OCCOC)cc23)c1 [Erlo, erlotinib hydrochloride, reference compound] |  |  |  |  |  |  | 18.3 ± 1.46 µM | 27.4 ± 1.77 µM |  |  |  |  |  |
